Assay results as given in patent publication US20020010210A1, “PHARMACEUTICAL PREPARATION AND METHOD FOR TREATING CANCER” (priority 1997, published 2002).
Where a name gives a salt, the structure may show the parent alone. Ends that are not written are not given here.

Experiments:
[1] = test system: spontaneous breast cancer rat cells (SST-2); assay: Lung metastasis of SST-2 in SHR rats, ascorbic acid derivative combined with known anticancer agent (Example 4); type: in vivo
Method: 1×100,000 spontaneous breast cancer rat cells (SST-2) were subcutaneously implanted into the back of a rat (SHR rat) (5 rats per group) suffering from spontaneous hypertension. After 35 days, the rats were sacrificed, and the number of colonies formed were measured to examine the degree of metastasis of SST-2 to the lung.
The ascorbic acid derivatives used were L-ascorbic acid-2-phosphate-6-palmitate, L-ascorbic acid-6-benzoate (reference compound) and magnesium L-ascorbic acid-2-phosphate.
Each of the groups treated with an ascorbic acid derivative was subjected to a test of administering the ascorbic acid derivative alone and to a test of administering the ascorbic acid derivative in combination with a known anticancer agent as shown in Table 4. Furthermore, tests of administering the anticancer agents alone were conducted. Over the period of from 7 days prior to implantation to 34 days after the implantation, the ascorbic acid derivative was injected through a vein in the tail region at a dose of 1 mg/1 day/rat. Each of the known anticancer agents was perorally administered in a minimum dose by reference to the concentration for a single use case described in the publication, Tyakuhin Yoran (Medical Product Handbook), 4th Edition, pp. 1474-1509, Yakugyo Jiho-Sha (1989), and the number of colonies formed after metastasis was compared.

[2] = test system: spontaneous breast cancer rat cells (SST-2); assay: as above; type: in vivo; remark: listed apart in the source
[3] = ascorbic acid derivative 1 mg/1 day/rat tail vein, day -7 to day 34, known anticancer agent perorally in minimum dose, colonies after 35 days

Compound | Cancer metastasis inhibitory effect of combination with L-Ascorbic Acid-2-Phosphate-6-Palmitate versus each agent alone [1, 3] | Cancer metastasis inhibitory effect of combination with L-Ascorbic Acid-2-Phosphate-6-Benzoate versus each agent alone [2, 3] | Cancer metastasis inhibitory effect of combination with L-Ascorbic Acid-6-Palmitate versus each agent alone [2, 3] | Cancer metastasis inhibitory effect of combination with L-Ascorbic Acid-2-Phosphate-6-Palmitate versus each agent alone ([1]; rat, in vivo) | Cancer metastasis inhibitory effect of combination with L-Ascorbic Acid-2-Phosphate-6-Benzoate versus each agent alone ([2]; rat, in vivo) | Cancer metastasis inhibitory effect of combination with L-Ascorbic Acid-6-Palmitate versus each agent alone ([2]; rat, in vivo)
COC1(O[C@H]2CC[C@H]3[C@@H]4CC[C@H]5C[C@@H]6S[C@@H]6C[C@]5(C)[C@H]4CC[C@]23C)CCCC1 [mebitiostan] | + | + | − |  |  | 
S=c1nc[nH]c2nc[nH]c12 [meercaptopurine] |  |  |  | + | + | −
NC(Cc1ccc(N(CCCl)CCCl)cc1)C(=O)O (stereo not drawn) [merphalan] | + | + | − |  |  | 
CN(Cc1cnc2nc(N)nc(N)c2n1)c1ccc(C(=O)N[C@@H](CCC(=O)O)C(=O)O)cc1 [methotrexate] | + | + | − |  |  | 
CO[C@@]12[C@H](COC(N)=O)C3=C(C(=O)C(C)=C(N)C3=O)N1C[C@@H]1N[C@@H]12 [mitomycin C] |  |  |  | + | + | −
Cc1ncc(CNC(=O)N(CCCl)N=O)c(N)n1 [nimustine hydrochloride] |  |  |  | + | + | −
CNNCc1ccc(C(=O)NC(C)C)cc1 [procarbazine hydrochloride] | + | + | − |  |  | 
CC/C(=C(\c1ccccc1)c1ccc(OCCN(C)C)cc1)c1ccccc1 [tamoxifen citrate] | + | + | − |  |  | 
O=c1[nH]c(=O)n(C2CCCO2)cc1F (stereo not drawn) [tegaful] |  |  |  | + | + | −
OC[C@H]1O[C@@H](n2cnc3c(S)ncnc32)[C@H](O)[C@@H]1O [thioinosine] | + | + | − |  |  | 
CC[C@]1(O)C[C@@H]2CN(CCc3c([nH]c4ccccc34)[C@@](C(=O)OC)(c3cc4c(cc3OC)N(C)[C@H]3[C@@](O)(C(=O)OC)[C@H](OC(C)=O)[C@]5(CC)C=CCN6CC[C@]43[C@@H]65)C2)C1 [vinblastine sulfate] | + | + | − |  |  | 
CC[C@]1(O)C[C@H]2CN(CCc3c([nH]c4ccccc34)[C@@](C(=O)OC)(c3cc4c(cc3OC)N(C=O)[C@H]3[C@@](O)(C(=O)OC)[C@H](OC(C)=O)[C@]5(CC)C=CCN6CC[C@]43[C@@H]65)C2)C1 [vincristine sulfate] | + | + | − |  |  | 
CC[C@]1(O)C[C@@H]2CN(CCc3c([nH]c4ccccc34)[C@@](C(=O)OC)(c3cc4c(cc3OC)N(C)[C@H]3[C@@](O)(C(N)=O)[C@H](O)[C@]5(CC)C=CCN6CC[C@]43[C@@H]65)C2)C1 [vindesine sulfate] | + | + | − |  |  | 
CDPGYIGSR-NH2 [CDPGYGSR-NH2] |  |  |  | + | + | −
CIZOFERAN | + | + | − |  |  | 
L-asparginase |  |  |  | + | + | −
PLEOMYCIN sulfate |  |  |  | + | + | −
Platelet Factor-4 |  |  |  | + | + | −
lentinan | + | + | − |  |  | 
neocarzinostatin | + | + | − |  |  | 
peptidoglycan | + | + | − |  |  | 
